# Assay results from patent US10933030B2, “Use of paeonol for inhibiting angiogenesis or for enhancing radiosensitization” (priority 2005, dated 2021).
# Tests used:
# [1] = tested on: B16BL6 melanoma cells; assay: Tumor growth, paeonol in combination with 5-FU; assay type: in vivo; conditions: 5-FU 70 mg/kg i.p. at day 3 and 6; paeonol 1 mg per mouse oral twice a day for 21 days
# Method: Synergy effect of paeonol in combination with anti-cancer drug, 5-fluorouracil (5-FU) was investigated. For the induction of primary tumor, B16BL6 melanoma cells (1×10^6) suspended in 0.2 ml of PBS were subcutaneously injected into C57BL6 female mice (SLC Co., Japan; 6 week-old, 20-25 g of body weight) adapted for 1 week. […] The size of tumor was measured once per 1-2 days for 21 days after injecting cancer cells and then the volume of tumor was calculated in accordance with the following equation, (width)^2×(length)×0.52.
# [2] = tested on: B16BL6 melanoma cells; assay: Lifetime elongation, paeonol in combination with 5-FU; assay type: in vivo, mouse; conditions: after 22 days, n=7
# Method: Effects of paeonol on lifetime elongation of tumor-induced mice were investigated.
# (§1) For the induction of primary tumor, B16BL6 melanoma cells (1×10^6) suspended in 0.2 ml of PBS were subcutaneously injected into C57BL6 female mice (SLC Co., Japan; 6 week-old, 20-25 g of body weight) adapted for 1 week.
# In 5-FU & paeonol treated group, 70 mg/kg per mouse of 5-FU was intraperitoneally injected at 3 day and 6 day after injecting cancer cells, and 1 mg per mouse of paeonol dissolved in 0.2 ml of 20% ethanol was orally administrated twice a day for 21 days after injecting cancer cells. In 5-FU treated group, 70 mg/kg per mouse of 5-FU was treated in the same manner as 5-FU & paeonol treated group. In the other hand, 0.2 ml of 20% ethanol was also orally administrated into control group and 5-FU treated group in the same manner as 5-FU & paeonol treated group.
# [3] = tested on: human uterine carcinoma cell (HeLa); assay: Cytotoxicity test by MTT assay, uterine carcinoma cell; assay type: cell-based
# Method: (§2) In order to examine the cytotoxicity of paeonol, 2×10^5 of normal human lung cell (BEAS-2B), human lung carcinoma cell (NCI-H460), human uterine carcinoma cell (HeLa) were treated with various concentrations (0.25, 0.5, 1, 2, 10 μg/ml) of paeonol for 24 hours, and then viabilities of each cells were measured by MTT assay.
# [4] = tested on: normal human lung cell (BEAS-2B); assay: Cytotoxicity test by MTT assay, normal lung cell; assay type: cell-based
# Method: as §2
# [5] = tested on: human lung carcinoma cell (NCI-H460); assay: Cytotoxicity test by MTT assay, lung carcinoma cell; assay type: cell-based
# Method: as §2
# [6] = tested on: human lung carcinoma cell line H460; assay: Radiosensitization, clone formation of lung carcinoma cell line H460; assay type: cell-based
# Method: […] At 7 day after irradiation, the clone formation (%) of each groups were measured and then the survival rates of each groups were compared with each other. Irradiation with high dose of radiation into cancer cell line prevents clone formation.
# [7] = tested on: uterine carcinoma cell line HeLa; assay: Radiosensitization, clone formation of uterine carcinoma cell line HeLa; assay type: cell-based, human
# Method: […] At 7 day after irradiation, the clone formation (%) of each groups were measured and then the survival rates of each groups were compared with each other.
# [8] = tested on: mouse lung carcinoma cell line, LLC (Lewis lung carcinoma); assay: Radiosensitization in LLC-transplanted mice, survival; assay type: in vivo; conditions: for survival of mice: 5 mg/kg oral
# Method: Effect of treatment of paeonol during radiation into lung carcinoma cell line-transplanted animal on radiosensitization was investigated.
# 1×10^6 of mouse lung carcinoma cell line, LLC (Lewis lung carcinoma) cell were suspended in 0.2 ml of PBS, and then were injected into left leg of mouse in order to induce the tumor. LLC-transplanted mice were classified into 4 groups such as control group (n=10), irradiation-treated group (n=10), paeonol-treated group (n=10), and irradiation & paeonol-treated group (n=10).
# After the volumes of tumor were about 100-200 mm^3 (6-7 day after LLC injection), 5 Gy of ^60Co radiation was irradiated to irradiation-treated group and irradiation & paeonol-treated group three times at an interval of 2 or 3 days.
# After the existence of tumor was detected by touching with hand (4 day after LLC injection), 5 mg/kg of paeonol dissolved in 20% ethanol was orally administered into paeonol-treated group and irradiation & paeonol group once a day for 20 days. For control group and irradiation group, 20% ethanol was orally administered in the same manner as paeonol-treated group.
# Enhancing effects of paeonol in combination with radiation on efficacy of radiotherapy was determined by comparing both tumor growth rates and mouse survival rates of 4 groups with each other groups.
# [9] = tested on: B16BL6 melanoma cells; assay: Growth of solid tumor in B16BL6 melanoma-injected mice; assay type: in vivo, mouse; conditions: oral 1 mg per day for 17 days; compared with control group
# Method: Effects of administering the present composition comprising paeonol on the growth of solid tumor were investigated. For the induction of primary tumor, B16BL6 melanoma cells (1×10^6) suspended in 0.2 ml of PBS ([…]) were subcutaneously injected into C57BL6 female mice (SLC Co., Japan; 6 week-old, 20-25 g of body weight) adapted for 1 week. 0.5 mg of the above isolated paeonol was dissolved in 0.2 ml of 20% ethanol, and then 0.5 mg per mouse of paeonol (1 mg/day) was orally administrated into the treated group (n=7) twice a day for 17 days after injecting cancer cells. In the other hand, 0.2 ml of 20% ethanol was also orally administrated into the control group (n=7) in the same manner as treated group. The size of tumor was measured once per 1-2 days for 17 days after injecting cancer cells and then the volume of tumor was calculated in accordance with the following equation, (width)^2×(length)×0.52.
# [10] = tested on: angiogenesis; assay: Mouse Matrigel model of angiogenesis (hemoglobin in Matrigel); assay type: in vivo; conditions: oral 0.5 mg per mouse twice a day (1 mg/day) for 4 days
# Method: Effects of oral administration of paeonol on angiogenesis were quantitatively investigated in mouse Matrigel model. […] 0.5 mg of the above isolated paeonol was dissolved in 0.2 ml of 20% ethanol, and then 0.5 mg per mouse of paeonol (1 mg/day) was orally administrated into the treated group (n=8) twice a day for 4 days. In the other hand, 0.2 ml of 20% ethanol was also orally administrated into the control group (n=8) in the same manner as treated group. On the fifth day of oral administration, Matrigel was separated from excised skin of each mouse, and the level of hemoglobin in the Matrigel was measured in order to determine the inhibition of angiogenesis quantitatively.
# [11] = tested on: mouse lung carcinoma cell line, LLC (Lewis lung carcinoma); assay: Radiosensitization in LLC-transplanted mice, tumor growth rate; assay type: in vivo; conditions: for tumor growth rate went down as compared with control group: 5 mg/kg oral
# Method: Effect of treatment of paeonol during radiation into lung carcinoma cell line-transplanted animal on radiosensitization was investigated. 1×10^6 of mouse lung carcinoma cell line, LLC (Lewis lung carcinoma) cell were suspended in 0.2 ml of PBS, and then were injected into left leg of mouse in order to induce the tumor. LLC-transplanted mice were classified into 4 groups such as control group (n=10), irradiation-treated group (n=10), paeonol-treated group (n=10), and irradiation & paeonol-treated group (n=10). […] For control group and irradiation group, 20% ethanol was orally administered in the same manner as paeonol-treated group. […] The sizes (width, length) of tumor were measured for 30 days at an interval of 2 or 3 days, and then the volumes of tumor were calculated by the following equation, (width)^2×(length)×0.52. The tumor growth rates were also calculated by converting into the time which it takes for tumor volume to be 2000 mm^3.
# [12] = tested on: B16BL6 melanoma cells; assay: Radiosensitization in melanoma-transplanted mice, tumor volume; assay type: in vivo, mouse; conditions: for decrease of tumor volume compared with control group: paeonol-treated group, no irradiation
# Method: Effect of treatment of paeonol during radiation into melanoma-transplanted animal on radiosensitization was investigated. In order to induce primary tumor, B16BL6 melanoma cells (1×10^6) suspended in 0.2 ml of PBS was subcutaneously injected into C57BL6 female mice (SLC Co., Japan; 6 week-old […]) adapted for 1 week. Melanoma-transplanted mice were classified into 6 groups: control group (n=10), irradiation group (n=10), paeonol-treated groups (0.5 or 1 mg/kg per day) (n=10), and irradiation & paeonol-treated groups (0.5 or 1 mg/kg per day) (n=10), and then it was observed whether the combinational treatment of irradiation and paeonol enhances the radiosensitization of melanoma-transplanted animal. […] For control group and irradiation group, 20% ethanol was orally administered in the same manner as paeonol-treated group. The sizes (width, length) of tumor were measured for 30 days at an interval of 2 or 3 days, and then the volumes of tumor were calculated by the following equation, (width)^2×(length)×0.52.
# [13] = tested on: B16BL6 melanoma cells; assay: Lifetime elongation of tumor-induced mice; assay type: in vivo, mouse; conditions: after 22 days; oral 1 mg/day; n=7
# Method: Effects of the present composition comprising paeonol on lifetime elongation of tumor-induced mice were investigated.
# as §1
# 0.5 mg of the above isolated paeonol was dissolved in 0.2 ml of 20% ethanol, and then 0.5 mg per mouse of paeonol (1 mg/day) was orally administrated into the treated group (n=7) twice a day for 22 days after injecting cancer cells. In the other hand, 0.2 ml of 20% ethanol was also orally administrated into the control group (n=7) in the same manner as treated group.
# [14] = tested on: B16BL6 melanoma cells; assay: Tumor metastasis into lung after intravenous injection of melanoma cells; assay type: in vivo, mouse
# Method: Inhibitory effects of the present composition comprising paeonol on tumor metastasis in tumor-induced mice were investigated. […] 0.25 mg of the above isolated paeonol was dissolved in 0.2 ml of 20% ethanol, and then 0.25 mg per mouse of paeonol (0.5 mg/day) was orally administrated into the treated group (n=6) twice a day for 14 days after injecting cancer cells. In the other hand, 0.2 ml of 20% ethanol was also orally administrated into the control group (n=6) in the same manner as treated group. After 14 days, mice were dissected, and then the numbers of colonies, which metastasized into lung, were counted.
# [15] = Acute toxicity test in animal; assay type: in vivo; conditions: dosage of 100 mg/kg
# [16] = 10 μg/ml of paeonol, 24 hours, MTT
# [17] = Radiation 0 Gy, paeonol 1 μg/ml, 7 day
# [18] = Radiation 0 Gy, paeonol 2 μg/ml, 7 day
# [19] = Radiation 1 Gy, paeonol 2 μg/ml, 7 day after irradiation
# [20] = Radiation 2 Gy, paeonol 1 μg/ml, 7 day after irradiation
# [21] = Radiation 2 Gy, paeonol 2 μg/ml, 7 day after irradiation
# [22] = Radiation 3 Gy, paeonol 1 μg/ml, 7 day after irradiation
# [23] = Radiation 3 Gy, paeonol 2 μg/ml, 7 day after irradiation
compound,measurement,setting,value
"O=c1[nH]cc(F)c(=O)[nH]1 [Compound 5-FU, 5-fluorouracil]",inhibition of tumor growth compared with control group,[1],50%
same,survival rate,"[2]; 5-FU 70 mg/kg i.p. at day 3 and 6, paeonol 1 mg per mouse oral twice a day",14%
same,number of mice survived,[2],one
COc1ccc(C(C)=O)c(O)c1 [paeonol],cytotoxicity,[3]; [16],15%
same,LD50,[3]; human,did not show enough toxicity to calculate LD50
same,cytotoxicity,[4]; [16],6%
same,LD50,[4]; human,did not show enough toxicity to calculate LD50
same,cytotoxicity,[5]; [16],18%
same,LD50,[5]; human,did not show enough toxicity to calculate LD50
same,decrease of clone formation compared with control group irradiated with 3 Gy,[6]; 1 μg/ml of paeonol,16%
same,decrease of clone formation compared with control group irradiated with 3 Gy,[6]; 2 μg/ml of paeonol,31%
same,Clone formation (%),[6]; [17],100%
same,Clone formation (%),[6]; [18],100%
same,Clone formation (%),[6]; [19],71.1%
same,Clone formation (%),"[6]; Radiation 1 Gy, paeonol 12 μg/ml, 7 day after irradiation",72.5%
same,Clone formation (%),[6]; [20],46.4%
same,Clone formation (%),[6]; [21],43.3%
same,Clone formation (%),[6]; [22],25.8%
same,Clone formation (%),[6]; [23],21.2%
same,decrease of clone formation compared with control group irradiated with 3 Gy,[7]; 1 μg/ml of paeonol,23%
same,decrease of clone formation compared with control group irradiated with 3 Gy,[7]; 2 μg/ml of paeonol,39%
same,Clone formation (%),[7]; [17],100%
same,Clone formation (%),[7]; [18],100%
same,Clone formation (%),"[7]; Radiation 1 Gy, paeonol 1 μg/ml, 7 day after irradiation",73.4%
same,Clone formation (%),[7]; [19],72.8%
same,Clone formation (%),[7]; [20],45.5%
same,Clone formation (%),[7]; [21],44.7%
same,Clone formation (%),[7]; [22],12.3%
same,Clone formation (%),[7]; [23],10.9%
same,increase of survival rate compared with control group,[8]; irradiation & paeonol-treated group,about 2 times
same,survival of mice,"[8]; irradiation & paeonol-treated group, 5 Gy three times, control 42, irradiation alone 60",78 days
same,survival of mice,"[8]; paeonol-treated group, no irradiation, control 42",69 days
same,inhibition of tumor growth,[9],48%
same,inhibition of angiogenesis,[10],about 67%
same,hemoglobin content of treated group as compared with control group,[10]; Matrigel with bFGF and heparin,33%
same,tumor growth rate went down as compared with control group,"[11]; irradiation & paeonol-treated group, 5 Gy three times",1.4 fold
same,Tumor growth rate (Time which it takes for tumor volume to be 2000 mm^3),"[11]; irradiation & paeonol-treated group: 5 Gy 60Co three times, paeonol 5 mg/kg oral once a day for 20 days, control 16, irradiation alone 19",22 days
same,Tumor growth rate (Time which it takes for tumor volume to be 2000 mm^3),"[11]; paeonol-treated group, 5 mg/kg oral once a day for 20 days, no irradiation, control 16",19 days
same,tumor growth rate went down as compared with control group,"[11]; paeonol-treated group, no irradiation",1.2 fold
same,"decrease of tumor volume compared with control group, maximum","[12]; irradiation & paeonol-treated groups (0.5 or 1.0 mg/kg), 5 Gy at 4 and 6 day, irradiation alone 33.1%",≤ 58.9%
same,decrease of tumor volume compared with control group,[12]; 0.5 mg/kg oral once a day,6.4%
same,decrease of tumor volume compared with control group,[12]; 1.0 mg/kg oral once a day,9.3%
same,number of mice survived,[13],three
same,survival rate,[13],43%
same,colonies metastasized into lung per mouse,"[14]; oral 0.25 mg per mouse twice a day (0.5 mg/day) for 14 days, control 213±60",132±80 colonies
same,inhibition of metastasis into lung,[14]; oral 0.5 mg/day for 14 days,38%
same,side effects during administration,[15],no side effects
